Experiment: Thermal treatment (heat-cool cycle by DSC, XRPD of resulting solids)
Type: physicochemical
Conditions: Heated to 130° C. at 10° C./min, and cooled to 25° C. at 5° C./min
Procedure: Compound 3, Form E was treated with heat-cool cycle by DSC. The resulted solids were characterized by XRPD. Compound 3, Form E, was converted to Compound 3, Form D after desolvation.
Compound 4 Form B was treated with heat-cool cycle by DSC. The resulted solids were checked by XRPD. […] The water was excluded at elevated temperature, then entered in the crystal lattice again at room temperature.
Compound 4 Form C and trace Form B was treated with heat-cool cycle by DSC. The resulted solids were checked by XRPD. The sample was converted to low crystalline (LC) Form B after heating to 175° C.
Compound 4 Form D was treated with heat-cool cycle by DSC. The resulted solids were checked by XRPD. The sample kept unchanged after heating to 140° C., but was converted to a new low crystalline form after heating to 210° C. which was assigned to Form F.

Cc1n[nH]c2nc(-c3ccc(NS(=O)(=O)c4cc(F)ccc4F)c(F)c3)nc(NCCN(C)C)c12 [Compound 4 Form B]
XRPD Resulting Form: Form B

From US20250320215A1, “SALTS OF N-[4-(4-[[2-(DIMETHYLAMINO)ETHYL]AMINO]-3-METHYL-1H-PYRAZOLO[3,4-D]PYRIMIDIN-6-YL)-2-FLUOROPHENYL]-2,5-DIFLUOROBENZENESULFONAMIDE AND CRYSTALLINE FORMS THEREOF” (THRYV THERAPEUTICS INC, priority 2022, published 2025)
